“And” between values parts separate entries of the source, which are not always exact repeats. Identical values can stand only once. “Also recorded” adds a separate entry of the source. Like-named read-outs stand apart in the source and are kept apart here.
Experiments:
PfGAP50 = biological target: T1, PfGAP50 (Plasmodium falciparum, UniProt Q8I2X3); assay: Surface plasmon resonance, PfGAP50 immobilized on CM5 chip, 1:1 binding model; settings: KD (SPR, GAP50), 1:1 Langmuir binding model
T1 sequence (Q8I2X3 24-365 limits assumed): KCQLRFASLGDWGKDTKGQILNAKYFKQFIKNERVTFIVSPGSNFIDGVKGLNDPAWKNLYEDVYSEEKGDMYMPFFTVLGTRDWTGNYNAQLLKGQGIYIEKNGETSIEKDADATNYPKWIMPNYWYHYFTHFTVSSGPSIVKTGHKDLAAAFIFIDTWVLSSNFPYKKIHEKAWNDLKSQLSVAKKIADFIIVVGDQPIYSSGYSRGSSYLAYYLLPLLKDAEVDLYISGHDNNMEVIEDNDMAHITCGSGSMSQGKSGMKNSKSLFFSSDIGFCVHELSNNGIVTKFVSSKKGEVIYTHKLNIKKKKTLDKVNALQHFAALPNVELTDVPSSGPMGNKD

Pf3D7 = assay: SYBR green I antiplasmodial growth inhibition assay; assay type: cell-based; settings: Plasmodium falciparum
PfINDO [1] = assay: as above; assay type: cell-based; settings: Plasmodium falciparum
PfCam3.1^R539T (MRA1240) = assay: as above; assay type: cell-based; settings: Plasmodium falciparum
MTT cytotoxicity assay [2] = assay type: cell-based, Human; settings: human, HEK293 cells
HEK293 = assay: MTT cytotoxicity assay; assay type: cell-based, Human; settings: for Selectivity index A: CC50 HEK293/IC50PfINDO; for selectivity index for P. falciparum parasites: human kidney and liver cell lines vs parasite
MTT cytotoxicity assay [3] = assay type: cell-based, Human; settings: human, HUH-7 cells
HUH-7 = assay: MTT cytotoxicity assay; assay type: cell-based, Human; settings: CC50PfHUH7/IC50PfINDO
PfINDO late schizonts = assay: Egress/invasion inhibition assay; assay type: cell-based, Plasmodium falciparum; settings: segmental schizonts, 8 h at 2× IC50, then 48 h drug free
P. falciparum (MRA1240) = assay: Fixed-ratio drug combination assay; assay type: cell-based, Plasmodium falciparum; settings: in combination with PYR, MFQ, and ART
[4] = tested on: P. falciparum strains (Pf3D7, PfINDO, PfCam3.1^R539T); assay: SYBR green I antiplasmodial assay, several strains stated together; assay type: cell-based; settings: Plasmodium falciparum, read-out: IC50s against all three strains of Plasmodium
PfINDO [5] = assay: Giemsa microscopy of parasite morphology after treatment at IC50; assay type: cell-based, Plasmodium falciparum; settings: ring-stage parasites (6–12 h p.i.) treated at IC50 up to 57 h
[6] = tested on: PfCam3.1^R539T early rings (0–3 h p.i.); assay: Ring-stage survival assay; assay type: cell-based, Plasmodium falciparum; settings: 10× IC50, 6 h treatment, 66 h recovery
P. bergheiANKA = assay: In vivo antimalarial study; set-up: species or system mice; settings: 50 mg/kg oral, 4 consecutive days
[7] = 700 mg dosage in humans, MDR-TB treatment; cited from earlier work
[8] = 3D7, read-out: IC50 (nM) against Pf strains 3D7
[9] = read-out: IC50 (nM) against Pf strains INDO
[10] = read-out: IC50 (nM) against Pf strains Cam3.1^R539T

Structure (SMILES) | Kd (PfGAP50) | IC50 (Pf3D7; [8]) [nM] | IC50 (PfINDO [1]; [9]) [nM] | IC50 (PfCam3.1^R539T (MRA1240); [10]) [nM] | CC50 at 24 h (MTT cytotoxicity assay [2]) [µM] | selectivity index for P. falciparum parasites (HEK293) [fold] | CC50 at 24 h (MTT cytotoxicity assay [3]) [µM] | effect on merozoite egress and invasion (PfINDO late schizonts) | interaction by average ∑FIC (P. falciparum (MRA1240)) | IC50 [4] [µM] | effect on parasite morphology and development (PfINDO [5]) | further results
NC(N)=Nc1ccc(-c2ccc(-c3ccc(N=C(N)N)c(Cl)c3)o2)cc1Cl [MMV688271, 2-[2-chloro-4-[5-[3-chloro-4-(diaminomethylideneamino)phenyl]furan-2-yl]phenyl]guanidine] | < 75 µM and 20 µM | 258 ± 54.2 | 284 ± 24.7 | 387 ± 39.6 | 119 ± 33.7 | > 100 | 29.7 ± 3.76 | schizontocidal activity; also recorded: completely prevented invasion/schizont rupture | additive (∑FIC 1–2.0) | ≤ 1.5 | inhibited schizont egression | Selectivity index A (HEK293): 478.31; Selectivity index B (HUH-7): 119.08
N=C(N)NCCCCC(=O)Nc1cc(C(F)(F)F)cc(NC(=O)c2cc(C(=O)Nc3cc(C(F)(F)F)cc(NC(=O)CCCCNC(=N)N)c3O[C@@H]3CCNC3)ncn2)c1O[C@@H]1CCNC1 [Brilacidin, 4-N,6-N-bis[3-(5-carbamimidamidopentanoylamino)-2-[(3R)-pyrrolidin-3-yl]oxy-5-(trifluoromethyl)phenyl]pyrimidine-4,6-dicarboxamide] | < 75 µM and 2.81 µM | 405 ± 63 | 634 ± 153 | 728 ± 65.2 | > 200 | > 100 | > 200 | completely prevented invasion/schizont rupture | additive (∑FIC 1–2.0) | ≤ 1.5 | partial suppression of invasion | effect on early rings in RSA [6]: cause retardation in the growth cycle but are not able to kill early rings
CCN(CC)CCCC(C)Nc1ccnc2cc(Cl)ccc12 (centres unmarked) [Chloroquine] |  | 14 ± 5 | 290 ± 20 | 55 ± 4 | 45.7 ± 3.12 |  | 58.5 ± 4.73 |  |  |  |  | Selectivity index A (HEK293): 157.55; Selectivity index B (HUH-7): 201.86
C[C@@H]1CC[C@H]2[C@@H](C)C(=O)O[C@@H]3O[C@@]4(C)CC[C@@H]1[C@]32OO4 [Artemisinin] |  | 13 ± 4 | 10 ± 2 | 15 ± 2 | > 100 |  | > 100 |  |  |  |  | 
O=C1[C@H](CC[C@H](O)c2ccc(F)cc2)[C@@H](c2ccc(O)cc2)N1c1ccc(F)cc1 [MMV1581377, (3R,4S)-1-(4-fluorophenyl)-3-[(3S)-3-(4-fluorophenyl)-3-hydroxypropyl]-4-(4-hydroxyphenyl)azetidin-2-one] | 1.16 µM |  |  |  |  |  |  |  |  |  |  | 
CC(C)(C)NC(=O)[C@@H]1CN(Cc2cnc3occc3c2)CCN1C[C@@H](O)C[C@@H](Cc1ccccc1)C(=O)N[C@H]1c2ccccc2C[C@H]1O [MMV1782353, (2S)-1-[(2S,4R)-4-benzyl-2-hydroxy-5-[[(1S,2R)-2-hydroxy-2,3-dihydro-1H-inden-1-yl]amino]-5-oxopentyl]-N-tert-butyl-4-(furo[2,3-b]pyridin-5-ylmethyl)piperazine-2-carboxamide] |  | 670 ± 70.2 | 562 ± 171 | 14300 ± 210 | > 200 | > 100 | > 200 | only partial inhibition of parasite invasion |  |  | permitted Pf development | IC50 (Pf3D7; read-out: IC50 Pf3D7): < 1000 nM; IC50 (PfINDO [1]; read-out: IC50 PfINDO): < 1000 nM; IC50 (PfCam3.1^R539T (MRA1240); read-out: IC50 PfCam3.1^R539T): > 1000 nM; effect on merozoite egress and invasion (PfINDO late schizonts; listed as 1782353): slowed the schizont rupture
COc1nc2ccc(Br)cc2cc1[C@@H](c1ccccc1)[C@@](O)(CCN(C)C)c1cccc2ccccc12 [Bedaquiline, (1R,2S)-1-(6-bromo-2-methoxyquinolin-3-yl)-4-(dimethylamino)-2-naphthalen-1-yl-1-phenylbutan-2-ol] | < 75 µM and 9.27 µM | 1210 ± 22.4 |  | 769 ± 73.6 | > 400 |  | > 400 | schizontocidal activity; also recorded: completely prevented invasion/schizont rupture | additive (∑FIC 1–2.0) | ≤ 1.5 | permitted parasites to develop normally while preventing merozoites from invading | effect on early rings in RSA [6]: showed activity against early rings; mice surviving / cured (P. bergheiANKA): three out of seven; suppression of % parasitemia (P. bergheiANKA): substantial suppression of parasitemia; also recorded: complete suppression of % parasitemia by day 19; Cmax [7]: 6470 ng/mL
Oc1cccc(C(Nc2nccs2)c2ccc3cccnc3c2O)c1 (centres unmarked) [MMV642550, 7-[(3-hydroxyphenyl)-(1,3-thiazol-2-ylamino)methyl]quinolin-8-ol] | < 75 µM | 393 ± 6.45 | 986 ± 159 | 1400 ± 97 | > 200 | > 100 | > 200 | only partial inhibition of parasite invasion |  | ≤ 1.5 | permitted Pf development | effect on merozoite egress and invasion (PfINDO late schizonts; listed as 642550): slowed the schizont rupture

From paper PMC10586260 (ACS Omega, 2023)
